Series [1] can be described thus: Water uptake / hygroscopicity on storage at 40° C. and 75% relative humidity.
Series [2] is described as follows: Water uptake on exposure to air for 13 days.

Read-outs that look alike come from different tables or passages of the source.

`COc1ccc(C(CN(C)C)C2(O)CCCCC2)cc1` (single isomer, unassigned; (-)) [Example 5, (−)-Isomer of Venlafaxine Besylate]: in series [1], the hygroscopicity entry is given as “less hygroscopic”.

As for `COc1ccc(C(CN(C)C)C2(O)CCCCC2)cc1` (racemic) [Example 4A, Venlafaxine Besylate Anhydrate], in series [1] (3 days at 40° C. and 75% relative humidity), the “water content after storage (K. Fischer)” value was determined as 4%. Further, the hygroscopicity entry in series [1] (listed as Anhydrous (+/−)-venlafaxine besylate) was “hygroscopic”.

For the molecule `COc1ccc(C(CN(C)C)C2(O)CCCCC2)cc1` (centres unmarked) [Example 4B, Amorphous Venlafaxine Besylate], in series [2] (exposed to air for 13 days), the “water present after exposure to air (Karl-Fischer)” value was 1 equivalent of water.

On to `COc1ccc(C(CN(C)C)C2(O)CCCCC2)cc1` (single isomer, unassigned; (+)) [Example 6, (+)-Isomer of Venlafaxine Besylate], for which the hygroscopicity result in series [1] was “less hygroscopic”.

Take `COc1ccc(C(CN(C)C)C2(O)CCCCC2)cc1` (racemic) [venlafaxine besylate monohydrate]: the “uptake of water after storage” value in series [1] (40° C., relative humidity 75%) is “No uptake of water”. Moreover, the hygroscopicity entry in series [1] (besylate monohydrate) is reported as “substantially non-hygroscopic”.

`COc1ccc(C(CN(C)C)C2(O)CCCCC2)cc1` (centres unmarked) [Example 4D, Less hydrated Venlafaxine Besylate]: the “water present after exposure to air (Karl-Fischer)” value in series [2] (exposed to air for 13 days at room temperature) is 1 molar equivalent of water.

The values are drawn from patent US6717015B2 (priority 2002, dated 2004).
